According to patent US12264156B2, “Compounds and pharmaceutical compositions thereof for the treatment of diseases” (GALAPAGOS NV, priority 2018, dated 2025):

Columns and labels:
SIK2 = target: T1, SIK2 (Homo sapiens, UniProt Q9H0K1); assay: ADP-Glo kinase assay, SIK2; assay type: biochemical; details: ADP-Glo SIK kinase assay
T1 construct: purchased ThermoFisher Scientific PV4792
How it was run: (§1)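 ADP-Glo, RT throughout. Enz/substrate + ATP, 120 min; ADP-Glo reagent 40 min (ATP depletion); detection reagent 30 min; luminescence read. Neg ctrl 1% DMSO, pos ctrl 10 μM staurosporine, final concs.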

SIK1 = target: T2, SIK1 (Homo sapiens, UniProt P57059); assay: ADP-Glo kinase assay, SIK1; assay type: biochemical; details: ADP-Glo SIK kinase assay
T2 construct: purchased Carna Biosciences 02-131
How it was run: as §1

SIK3 = target: T3, SIK3 (Homo sapiens, UniProt Q9Y2K2); assay: ADP-Glo kinase assay, SIK3; assay type: biochemical; details: ADP-Glo SIK kinase assay
T3 construct: purchased SignalChem S12-11G-100
How it was run: as §1

[1] = tested on: LPS-induced TNFα in monocyte-derived macrophages (MdM); assay: MdM assay: LPS-triggered TNFα (ELISA); assay type: cell-based, human; details: Homo sapiens, Macrophage, 20 h, monocyte-derived macrophages, LPS 200 ng/mL, supernatant after 20 h; read-out: TNFα EC50
Description: This assay evaluates illustrative compounds of the invention for their inhibition of LPS-induced TNFα and LPS triggered IL-10 secretion in monocyte-derived macrophages.
PBMCs are isolated from human blood samples (buffycoats). The buffy coat is aseptically transferred into a 50 mL Falcon tube, and diluted 1/2 in PBS. Falcon tubes are filled with 20 mL Lymphoprep™, on top of which 25 mL of the buffy coat is carefully added, tubes are centrifuged for 35 min at 400 g in temperature controlled centrifuge, without brake, at 25° C. PBMCs are aspirated from the white interface layer between sample and Lymphoprep™. PBMCs are washed five times in PBS.
PBMCs are centrifuged at 300×g for 10 min and resuspended at a density of 1.0*10^7 cells/80 μL Miltenyi buffer (PBS, pH 7.4, 1% FBS, 2 mM EDTA).
Starting from this point of the protocol all steps are performed on ice. 20 μL of CD14+ micro-beads are added per 1.0*10^7 cells, the tube is mixed and incubated for 15 min in the fridge at 4° C. Cell suspension volume is adjusted to total volume of 100 mL using Miltenyi buffer, mixed gently and subsequently centrifuged for 10 min at 300×g. Supernantant is discarded and cell pellet is resuspended in 12 mL of Miltenyi buffer.
Four LS columns are placed in the MACS Separator (magnet) from Miltenyi Biotec, and are prewet by rinsing with 3 mL of MACS buffer per column. Three mL of cell suspension is added onto the column (max 1*10^8 of labelled cells/column), and columns are subsequently washed 3 times with 3 mL of Miltenyi buffer.
The columns are removed from the magnets, and 5 mL of Miltenyi buffer are added to the column to flush out the CD14+ fraction by pushing the plunger into the column. The flushed fractions are collected in a fresh 50 mL Falcon and volume is adjusted to 30 mL using Miltenyi buffer, cells are centrifuged for 10 min at 300×g. The obtained cell pellet is resuspended in 10 mL RPMI w/o FBS, and cell density is determined using a hematologic analyser (Sysmex XS-500i).
On day 10, MdMs are triggered and compound is added.
A compound dilution plate is made in 100% DMSO by 3-fold dilution of 10 mM stock solution. An intermediate dilution plate (10× final concentration) is made by diluting the compound dilution plate 50-fold in RPMI medium.
Medium is carefully removed from cell plates using multichannel pipette, and replaced by 80 μL fresh medium. 10 μL of the 10× final concentration compound is added to the cells and incubated for 1 hour at 37° C. before addition of trigger. No trigger conditions/trigger conditions are spiked with equal final DMSO concentrations of 0.2% DMSO. 10 μL of 10×LPS (final conc. 200 ng/mL) solution are added to all wells except for the ‘no trigger wells’ where 10 μL medium is added. Supernatant is collected after 2 h (IL-10 determination) and after 20 h (TNFα determination) of LPS triggering.
The plate is then washed once with PBST (PBS+0.05% Tween20) and once with PBS followed by the addition of 100 μL of blocking buffer (1% Bovine Serum Albumin (BSA)−5% Sucrose) and plates are sealed and incubated for at least 4 h at RT. After washing the plate once with PBST and once with PBS, 40 μL of standard or sample are added (TNFα standard curve is prepared using a 1/2 serial dilution starting from […]; dilutions are made in dilution buffer (PBS+1% BSA)). Plates are washed twice with PBST, and once with PBS, after which 35 μL of the detection antibody is added (final concentration 0.25 μg/mL diluted in dilution buffer) and plates are incubated for at least 2 h at RT. Plates are washed twice with PBST, and once with PBS, where after 35 μL of Strep-HRP conjugate (0.5 μg/mL final concentration diluted in dilution buffer) is added. Plates are incubated in the dark, at RT for at least 45 min but no longer than 1 hour. Plates are washed twice with PBST, and once with PBS.

T2 sequence (P57059 whole entry): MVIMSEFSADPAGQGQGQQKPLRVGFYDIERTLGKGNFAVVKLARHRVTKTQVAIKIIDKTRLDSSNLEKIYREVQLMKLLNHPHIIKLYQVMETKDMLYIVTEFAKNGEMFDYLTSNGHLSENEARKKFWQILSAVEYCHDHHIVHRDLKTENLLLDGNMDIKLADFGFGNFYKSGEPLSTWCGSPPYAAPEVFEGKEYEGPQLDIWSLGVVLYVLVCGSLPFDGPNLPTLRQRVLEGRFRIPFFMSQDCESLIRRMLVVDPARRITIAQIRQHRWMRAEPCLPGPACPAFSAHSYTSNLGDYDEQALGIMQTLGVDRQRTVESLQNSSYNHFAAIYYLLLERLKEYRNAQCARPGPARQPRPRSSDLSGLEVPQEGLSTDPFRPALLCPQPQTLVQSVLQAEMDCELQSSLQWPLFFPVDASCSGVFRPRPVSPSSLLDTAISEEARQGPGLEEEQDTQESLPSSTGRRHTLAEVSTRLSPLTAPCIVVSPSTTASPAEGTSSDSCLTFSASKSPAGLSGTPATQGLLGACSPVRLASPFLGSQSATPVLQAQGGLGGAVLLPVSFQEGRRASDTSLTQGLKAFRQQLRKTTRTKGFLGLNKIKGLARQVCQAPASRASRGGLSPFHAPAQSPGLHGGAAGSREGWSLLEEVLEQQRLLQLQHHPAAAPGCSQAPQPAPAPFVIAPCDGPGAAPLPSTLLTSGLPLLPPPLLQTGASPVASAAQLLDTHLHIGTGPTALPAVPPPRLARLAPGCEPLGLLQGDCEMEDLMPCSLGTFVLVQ
T3 sequence (Q9Y2K2 whole entry): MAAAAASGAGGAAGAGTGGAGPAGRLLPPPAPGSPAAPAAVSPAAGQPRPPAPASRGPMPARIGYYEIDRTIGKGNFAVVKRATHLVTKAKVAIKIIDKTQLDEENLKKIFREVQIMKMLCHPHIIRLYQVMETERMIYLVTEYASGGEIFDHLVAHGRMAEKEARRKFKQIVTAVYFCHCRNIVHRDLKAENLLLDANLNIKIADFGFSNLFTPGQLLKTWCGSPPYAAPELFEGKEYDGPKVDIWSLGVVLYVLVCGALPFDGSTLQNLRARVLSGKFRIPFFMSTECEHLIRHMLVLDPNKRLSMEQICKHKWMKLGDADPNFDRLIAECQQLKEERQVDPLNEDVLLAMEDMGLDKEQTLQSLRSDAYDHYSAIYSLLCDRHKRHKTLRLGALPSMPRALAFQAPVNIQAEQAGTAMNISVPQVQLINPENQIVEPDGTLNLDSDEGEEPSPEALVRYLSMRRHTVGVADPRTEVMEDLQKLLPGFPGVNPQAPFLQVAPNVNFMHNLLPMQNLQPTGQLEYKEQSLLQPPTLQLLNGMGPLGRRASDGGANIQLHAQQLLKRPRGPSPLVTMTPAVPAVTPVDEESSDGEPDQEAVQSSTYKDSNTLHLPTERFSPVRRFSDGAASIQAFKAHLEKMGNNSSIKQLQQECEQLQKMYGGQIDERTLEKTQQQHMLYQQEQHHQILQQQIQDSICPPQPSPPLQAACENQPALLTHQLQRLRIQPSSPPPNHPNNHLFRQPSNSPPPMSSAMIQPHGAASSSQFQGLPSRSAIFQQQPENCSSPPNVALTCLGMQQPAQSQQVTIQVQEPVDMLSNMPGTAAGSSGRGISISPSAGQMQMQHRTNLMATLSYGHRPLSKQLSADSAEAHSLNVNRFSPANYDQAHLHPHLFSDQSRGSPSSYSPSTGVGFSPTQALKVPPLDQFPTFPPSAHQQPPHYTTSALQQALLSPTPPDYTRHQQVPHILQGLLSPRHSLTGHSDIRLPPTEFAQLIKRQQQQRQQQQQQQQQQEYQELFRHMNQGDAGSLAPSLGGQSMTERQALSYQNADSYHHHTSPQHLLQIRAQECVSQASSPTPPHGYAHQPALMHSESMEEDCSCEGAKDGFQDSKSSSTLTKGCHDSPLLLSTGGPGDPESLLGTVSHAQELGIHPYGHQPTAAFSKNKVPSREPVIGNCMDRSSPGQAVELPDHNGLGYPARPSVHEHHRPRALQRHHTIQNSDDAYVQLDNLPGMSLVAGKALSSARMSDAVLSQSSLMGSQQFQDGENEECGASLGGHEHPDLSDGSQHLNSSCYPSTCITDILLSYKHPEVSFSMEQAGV
T1 sequence (Q9H0K1 whole entry): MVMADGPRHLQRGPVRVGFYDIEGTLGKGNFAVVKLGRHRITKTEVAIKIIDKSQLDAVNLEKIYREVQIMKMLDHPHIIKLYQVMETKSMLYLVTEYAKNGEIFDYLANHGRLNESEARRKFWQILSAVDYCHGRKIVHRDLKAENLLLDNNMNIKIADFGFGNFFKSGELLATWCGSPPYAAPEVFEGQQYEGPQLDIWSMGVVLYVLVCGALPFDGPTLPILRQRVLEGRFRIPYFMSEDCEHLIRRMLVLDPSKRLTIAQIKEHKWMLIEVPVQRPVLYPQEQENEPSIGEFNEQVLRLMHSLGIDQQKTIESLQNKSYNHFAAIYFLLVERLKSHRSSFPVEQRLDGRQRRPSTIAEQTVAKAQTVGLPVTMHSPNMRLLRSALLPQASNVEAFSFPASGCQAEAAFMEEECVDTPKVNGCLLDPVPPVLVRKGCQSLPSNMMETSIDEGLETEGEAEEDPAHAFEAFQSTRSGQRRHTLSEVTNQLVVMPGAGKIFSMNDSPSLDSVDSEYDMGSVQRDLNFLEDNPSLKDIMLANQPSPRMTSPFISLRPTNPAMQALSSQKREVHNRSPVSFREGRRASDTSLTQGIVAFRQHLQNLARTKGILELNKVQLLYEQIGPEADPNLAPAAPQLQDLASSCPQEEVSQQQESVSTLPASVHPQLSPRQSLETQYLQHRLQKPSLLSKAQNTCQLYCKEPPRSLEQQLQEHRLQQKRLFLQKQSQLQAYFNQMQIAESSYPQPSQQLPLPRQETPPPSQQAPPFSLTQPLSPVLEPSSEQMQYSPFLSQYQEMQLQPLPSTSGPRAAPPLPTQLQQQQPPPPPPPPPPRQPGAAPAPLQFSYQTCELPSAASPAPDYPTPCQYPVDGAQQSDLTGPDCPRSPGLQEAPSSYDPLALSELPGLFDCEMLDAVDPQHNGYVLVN

IC50 (SIK2) [nM]	IC50 (SIK1) [nM]	IC50 (SIK3) [nM]	EC50 [1] [nM]	SMILES
0.01 to 10	10 to 100	0.01 to 10	1000 to 5000	COc1cc(-c2cnc3cc(OCC(C)N)ccn23)cc(OC(F)F)c1C(=O)NC1CC1 (stereo not drawn) [compound 138, 4-[7-(2-aminopropoxy)imidazo [1,2-a]pyridin-3-yl]-N-cyclopropyl-2-(difluoromethoxy)-6-methoxy-benzamide]
0.01 to 10	100 to 500	0.01 to 10	100 to 1000	COc1cc(-c2cnc3cc(OC[C@@H]4CCCCN4C)ccn23)cc(OC(F)F)c1C(=O)NC1CC1 [compound 139, N-cyclopropyl-2-(difluoromethoxy)-6-methoxy-4-[7-[[(2S)-1-methyl-2-piperidyl]methoxy]imidazo [1,2-a]pyridin-3-yl]benzamide]
0.01 to 10	100 to 500	0.01 to 10	100 to 1000	COc1cc(-c2cnc3cc(OCCCN4CCOCC4)ccn23)cc2c1C(=O)N(CC(F)(F)F)CC2 [compound 55, 8-methoxy-6-[7-(3-morpholinopropoxy)imidazo[1,2-a]pyridin-3-yl]-2-(2,2,2-trifluoroethyl)-3,4-dihydro isoquinolin-1-one]
0.01 to 10	10 to 100	0.01 to 10	0.1 to 100	COc1cc(-c2cnc3cc(OCCCN4CCOCC4)ccn23)cc(OC(F)F)c1C(=O)NC1CC1 [compound 21, N-cyclopropyl-2-(difluoromethoxy)-6-methoxy-4-[7-(3-morpholinopropoxy)imidazo[1,2-a]pyridin-3-yl]benzamide]
0.01 to 10	100 to 500	0.01 to 10	100 to 1000	COc1cc(-c2cnc3cc(OCCN(C(C)C)C(C)C)ccn23)cc(OC(F)F)c1C(=O)NC1CC1 [compound 78, N-cyclopropyl-2-(difluoromethoxy)-4-[7-[2-(diisopropylamino)ethoxy]imidazo[1,2-a]pyridin-3-yl]-6-methoxy-benzamide]
0.01 to 10	> 500	0.01 to 10	1000 to 5000	COc1cc(-c2cnc3cc(OCCN(C)C)ccn23)cc2c1C(=O)N(CC#N)CC2 [compound 67, 2-[6-[7-[2-(dimethylamino)ethoxy]imidazo[1,2-a]pyridin-3-yl]-8-methoxy-1-oxo-3,4-dihydroisoquinolin-2-yl]acetonitrile]
10 to 100	10 to 100	0.01 to 10	–	COc1cc(-c2cnc3cc(OCC4COCCN4C)ccn23)cc(OC(F)F)c1C(=O)NC1CC1 (stereo not drawn) [compound 201, N-cyclopropyl-2-(difluoromethoxy)-6-methoxy-4-[7-[(4-methylmorpholin-3-yl)methoxy]imidazo[1,2-a]pyridin-3-yl]benzamide]
0.01 to 10	10 to 100	0.01 to 10	–	COc1cc(-c2cnc3cc(OCc4cocn4)ccn23)cc(OC(F)F)c1C(=O)NC1CC1 [compound 60, N-cyclopropyl-2-(difluoromethoxy)-6-methoxy-4-[7-(oxazol-4-ylmethoxy)imidazo[1,2-a]pyridin-3-yl]benzamide]

Continued, molecule first:

SMILES	IC50 (SIK2) [nM]	IC50 (SIK1) [nM]	IC50 (SIK3) [nM]	EC50 [1] [nM]
COc1cc(-c2cnc3cc(OCC4CCCCO4)ccn23)cc(OC(F)F)c1C(=O)NC1CC1 (stereo not drawn) [compound 48, N-cyclopropyl-2-(difluoromethoxy)-6-methoxy-4-[7-(tetrahydropyran-2-ylmethoxy)imidazo[1,2-a]pyridin-3-yl] benzamide]	0.01 to 10	10 to 100	0.01 to 10	0.1 to 100
COc1cc(-c2cnc3cc(OCc4cnco4)ccn23)cc(OC(F)F)c1C(=O)NC1CC1 [compound 33, N-cyclopropyl-2-(difluoromethoxy)-6-methoxy-4-[7-(oxazol-5-ylmethoxy)imidazo[1,2-a]pyridin-3-yl]benzamide]	0.01 to 10	10 to 100	0.01 to 10	0.1 to 100
COc1cc(-c2cnc3cc(OCC4(C)CCCCN4)ccn23)cc(OC(F)F)c1C(=O)NC1CC1 (stereo not drawn) [compound 172, N-cyclopropyl-2-(difluoromethoxy)-6-methoxy-4-[7-[(2-methyl-2-piperidyl)methoxy]imidazo[1,2-a]pyridin-3-yl]benzamide]	0.01 to 10	100 to 500	0.01 to 10	1000 to 5000
COc1cc(-c2cnc3cc(OCC4CCO4)ccn23)cc(OC(F)F)c1C(=O)NC1CC1 (stereo not drawn) [compound 35, N-cyclopropyl-2-(difluoromethoxy)-6-methoxy-4-[7-(oxetan-2-ylmethoxy)imidazo[1,2-a]pyridin-3-yl]benzamide]	0.01 to 10	10 to 100	0.01 to 10	100 to 1000
COc1cc(-c2cnc3cc(OC[C@@H]4CC(F)(F)CN4C)ccn23)cc(OC(F)F)c1C(=O)NC1CC1 [Cpd 189, N-cyclopropyl-2-(difluoromethoxy)-4-[7-[[(2S)-4,4-difluoro-1-methyl-pyrrolidin-2-yl]methoxy]imidazo[1,2-a]pyridin-3-yl]-6-methoxy-benzamide]	0.01 to 10	10 to 100	0.01 to 10	100 to 1000
COc1cc(-c2cnc3cc(OCC4(C)CCCN4)ccn23)cc(OC(F)F)c1C(=O)NC1CC1 (stereo not drawn) [compound 168, N-cyclopropyl-2-(difluoromethoxy)-6-methoxy-4-[7-[(2-methylpyrrolidin-2-yl)methoxy]imidazo[1,2-a]pyridin-3-yl]benzamide]	0.01 to 10	100 to 500	0.01 to 10	100 to 1000
COc1cc(-c2cnc3cc(OCC4CCOC4)ccn23)cc(OC(F)F)c1C(=O)NC1CC1 (stereo not drawn) [compound 92, N-cyclopropyl-2-(difluoromethoxy)-6-methoxy-4-[7-(tetrahydrofuran-3-ylmethoxy)imidazo[1,2-a]pyridin-3-yl]benzamide]	0.01 to 10	10 to 100	0.01 to 10	–
COc1cc(-c2cnc3cc(OCc4ccncc4)ccn23)cc(OC(F)F)c1C(=O)NC1CC1 [compound 103, N-cyclopropyl-2-(difluoromethoxy)-6-methoxy-4-[7-(4-pyridylmethoxy)imidazo [1,2-a]pyridin-3-yl]benzamide]	0.01 to 10	10 to 100	0.01 to 10	–
COc1cc(-c2cnc3cc(OCC4CCC4)ccn23)cc(OC(F)F)c1C(=O)NC1CC1 [Cpd 71, 4-[7-(cyclobutylmethoxy)imidazo[1,2-a]pyridin-3-yl]-N-cyclopropyl-2-(difluoromethoxy)-6-methoxy-benzamide]	0.01 to 10	0.01 to 10	0.01 to 10	–
COc1cc(-c2cnc3cc(OC4CC5(COC5)C4)ccn23)cc(OC(F)F)c1C(=O)NC1CC1 [compound 162, N-cyclopropyl-2-(difluoromethoxy)-6-methoxy-4-[7-(2-oxaspiro[3.3]heptan-6-yloxy)imidazo[1,2-a]pyridin-3-yl]benzamide]	10 to 100	10 to 100	0.01 to 10	–
